Test results as given in publication PMC9173784 (Proceedings of the National Academy of Sciences of the …, 2022).
Blank lines part the entries; values can stand above or below the molecule they belong to.

Assays:
GALR1 [1] = assay: Zn2+ inhibition assay, NanoBiT; format: cell-based, human
GALR2 [2] = assay: Zn2+ inhibition assay, NanoBiT; format: cell-based, human; settings: HEK-293T cells, pH 7.3
NMAR receptors = settings: cited from earlier work
[3] = test system: ionotropic glutamate AMPA receptors; settings: cited from earlier work
GALRs [4] = settings: cited from earlier work
[5] = biological target: GALR2 F264 mutant (human) (UniProt O43603)
[6] = biological target: GALR1 F275 mutant (human) (UniProt P47211)
GALR1 V274G (human) = GALR1 V274G (human) (UniProt P47211)
GALR2 F271^7.32A (human) = GALR2 F271^7.32A (human) (UniProt O43603)
GALR2 R184^5.35A (human) = GALR2 R184^5.35A (human) (UniProt O43603)
[7] = biological target: GALR2 Q82^2.61 to alanine (human) (UniProt O43603)
[8] = biological target: GALR1 Q92^2.61 to alanine (human) (UniProt P47211)
GALRs [9] = settings: cited from earlier work; remark: listed apart in the source
GALR1 or mutants = assay: cAMP inhibition assay; format: cell-based, human; settings: CHO cells
GALR1 and its mutants = assay: NanoBiT mini-Go recruitment assay; format: cell-based, human
GALR2 or mutants = assay: IP1 accumulation assay; format: cell-based, human; settings: HEK-293T cells, 1 h
GALR2 [10] = assay: GALR2-Gq coupling of ICL2 and TM5 mutants; format: cell-based, human; settings: L^5.65A mutation in GALR2
GALR1 [11] = settings: cited from earlier work
GALR2 with ICL3 of GALR1 = assay: GALR2-Go coupling with ICL3 substitution; format: cell-based, human; settings: ICL3 (214 to 225) of GALR2 replaced by GALR1 residues
GALR2 [12] = settings: cited from earlier work
GALR2 [13] = assay: NanoBiT assay, GALR2-Gαs coupling; format: cell-based, human; settings: E(-3) in Gαs substituted with the equivalent Gαq residue
GALR3 [14] = settings: mutation of equivalent residue F263 in GALR3; cited from earlier work
GALR2 and its mutants = assay: NanoBiT mini-Gq recruitment assay; format: cell-based, human; settings: mutations of conserved TM3/TM5/TM6 residues in GALR2
GALR3 [15] = settings: specific for GALR2 and GALR3; cited from earlier work
GALR2 [16] = settings: specific for GALR2 and GALR3; cited from earlier work
[17] = S235^ICL3 and K237^ICL3 mutations in GALR1

Molecule: [Zn+2] [Zn^2+, ZnCl2]
- character of Zn2+ inhibition (GALR1 [1]; 1 μM galanin, wild-type GALR1, HEK-293T cells, pH 7.3): saturable or has a “ceiling” level
- effect of mutation on zinc inhibition (GALR1 [1]; GALR1 H112^3.29A, 1 μM galanin, HEK-293T cells): little influence
- effect of mutation on zinc inhibition (GALR1 [1]; GALR1 H263^6.51F, 1 μM galanin, HEK-293T cells): little influence
- effect of mutation on zinc inhibition (GALR1 [1]; GALR1 H264^6.52F, 1 μM galanin, HEK-293T cells): little influence
- effect on galanin concentration-response curve (GALR1 [1]; H267^6.55A mutant of GALR1, HEK-293T cells): little effect
- allosteric modulation of GALR1 (GALR1 [1]; conclusion from NanoBiT assay, listed as zinc ion): negative allosteric regulator
- effect on galanin-induced GALR2 activation (GALR2 [2]; below millimolar Zn2+): little effect
- Zn2+ concentration at which galanin activation of GALR2 is diminished (GALR2 [2]; galanin-induced, above the physiological concentration): millimolar range
- effect on NMDA receptors (NMAR receptors): inhibits
- effect on AMPA receptors [3]: inhibits
- inhibition of galanin binding to the receptors (GALRs [4]): can inhibit galanin binding

Molecule: N-terminal region of galanin ([1]–[16]): N-terminal region of galanin
- binding affinity for the receptors relative to full-length galanin (GALRs [4]): comparable to the full-length galanin

- fold reduction of galanin potency, IP1 accumulation assay [5]: 100 fold
- fold reduction of galanin potency, cAMP inhibition assay [6]: 100 fold
- fold reduction of agonist potency, cAMP inhibition assay (GALR1 V274G (human)): 370 fold
- fold reduction of galanin potency, IP1 accumulation assay (GALR2 F271^7.32A (human)): 100 fold
- fold reduction of galanin potency, IP1 accumulation assay (GALR2 R184^5.35A (human)): 10 fold
- fold reduction of galanin potency, IP1 accumulation assay [7]: 100 fold
- fold reduction of galanin potency, cAMP inhibition assay [8]: 100 fold
Molecule: galanin peptide 1 through 30

Molecule: galanin-like peptide (GALP): endogenous galanin-like peptide (APAHRGRGGWTLNSAGYLLGPVLHLPQMGDQDGKRETALEILDLWKAIDGLPYSHPPQPS; Galanin-like peptide; UniProt Q9UBC7 25-84, looked up)
- activation of GALRs (GALRs [9]): activate GALRs

Molecule: galanin: 29- or 30-amino acid peptide, endogenous ligand; galanin peptide 1 through 30 (MedChemExpress)
- reduction of agonist (galanin) potency vs wild type (GALR1 or mutants; V274G mutant of GALR1 (ECL3), 1 μM forskolin): about 370 fold
- effect of mutation on galanin potency (GALR1 or mutants; W188^ECL2 mutant of GALR1, compared with H176^ECL2 mutant of GALR2): distinct effect
- reduction of galanin potency vs wild type (GALR1 or mutants; mutation of F275 (ECL3) in GALR1, 1 μM forskolin): ~100 fold
- effect of mutation on galanin maximum response (GALR1 and its mutants; [17]): dramatically reduced
- effect of mutation on galanin potency (GALR1 and its mutants; [17]): modest effect
- recruitment of Gi (GALR1 and its mutants; mutations of conserved TM3/TM5/TM6 residues in GALR1): impair
- reduction of galanin potency vs wild type (GALR2 or mutants; Q82^2.61 to alanine mutant of GALR2): ~100 fold
- effect of mutation on galanin potency (GALR2 or mutants; Q263A mutant of GALR2 (ECL3)): little effect
- reduction of galanin potency vs wild type (GALR2 or mutants; R184^5.35A mutant of GALR2): about 10 fold
- reduction of galanin potency vs wild type (GALR2 or mutants; mutation of F264 (ECL3) in GALR2): ~100 fold
- effect of mutation on galanin potency (GALR2 [10]): significantly decreased
- reduction of galanin binding affinity (GALR1 [11]; H267^6.55 mutation of GALR1): more than 100 fold
- galanin binding affinity of mutants (GALR1 [11]; mutations of F115 and H264 of GALR1): significantly reduce
- ability of GALR2 to bind Go (GALR2 with ICL3 of GALR1): acquired the ability to bind Go
- galanin binding to mutant (GALR2 [12]; mutation of F264 in GALR2): completely abolishes
- galanin binding affinity of mutants (GALR2 [12]; mutations of F106, H252, H253, I256, W260, and F261 of GALR2): significantly reduce
- coupling efficiency between GALR2 and Gs (GALR2 [13]): significantly increased
- galanin binding to mutant (GALR3 [14]): completely abolishes
- recruitment of Gq (GALR2 and its mutants): impair
- binding affinity for GALRs (GALRs [4]): subnanomolar range

B1: spexin: endogenous peptide spexin has A7M and G8L mutations in galanin (peptide, UniProt Q9BT56 27-116, looked up)
Spexin: APQRLLERRNWTPQAMLYLKGAQGRRFISDQSRRKDLSDRPLPERRSPNPQLLTIPEAATILLASLQKSPEDEEKNFDQTRFLEDSLLNW
modifications: Spexin
- activation of GALR3 (GALR3 [15]): specifically activates GALR2 and GALR3
- activation of GALRs (GALRs [9]): activate GALRs
- activation of GALR2 (GALR2 [16]): specifically activates GALR2 and GALR3
